Bridge positions count the residues as written; N and C are the ends. Square brackets hold non-standard residues; d marks the D form. Peptide text beside a SMILES is read from it. * marks the point of attachment. Ileψ(thiazoline)Cys = CC[C@H](C)[C@H](N)C1=N[C@H](C(=O)*)CS1; dOrn = NCCC[C@@H](N)C(=O)O
Tests used:
S. aureus [1] = assay: Mouse skin infection model: S. aureus infection in abraded mouse skin treated with topical ointment; assay type: in vivo; conditions: for synergy with mupirocin in the skin infection model (in words): combination with mupirocin; for synergy with mupirocin in the skin infection model (in words) / synergy or additive effect with nisin in the skin infection model (in words): superficial wound model; for synergy or additive effect with nisin in the skin infection model (in words): combination with nisin
Procedure: (§1) Mouse Skin Infection Model: An overnight culture of S. aureus grown in tryptic soy broth (SA8; range from 1 to 6×10^9 CFUs/mL) was centrifuged at 4000×g for 10 minutes and resuspended in an equal volume of phosphate buffered saline (PBS). The bacteria were diluted to a percent transmittance of 40 (Spectronic 20D+) and diluted a subsequent 1:1000 in PBS for a final bacteria concentration of about 3×10^5. SKH1 (hrhr) hairless mice (Charles River) were sedated with 0.2 mL of ketamine (80 mg/kg) and xylazine (32 mg/kg) delivered intraperitoneally. The upper back of the mice were scrubbed with a 70% alcohol wipe and allowed to dry. Fine abrasions were made on the backs of the mice between the shoulders using 150 grit sandpaper. Bacteria were swabbed over the abraded area with a sterile, cotton-tipped applicator until the area was saturated with the solution.
Topical Ointment: 74 g of PEG 400 and 24 g of PEG 3350 were added to a 250 mL glass beaker and heated until all of the PEG 3350 was melted. […] Lysostaphin was first dissolved to a concentration of about 150 mg/mL in DI water before mixing into the ointment to give a final concentration of 2% (w/w).
Treatment of Infected Skin with Topical Ointment: Treatments aimed to eradicate S. aureus skin infections in the mouse model were started on the morning after infection (Day 1). […] The mice were sacrificed by CO2 asphyxiation on the morning of Day 3 and a 0.5-cm^2 patch of skin around the infected area was excised. The skin sample was disected and placed into a test tube containing 1 mL of 5 mg/mL proteinase K, 20 mg/mL esterase, and 20 mg/mL activated charcoal in PBS to neutralize the activity of the antibacterial agents. Bacteria were dislodged from the skin sample by sonication: 2 minute treatments per sample with alternating 5 seconds at 3 W and 5 seconds at 0 W in a Virsonic 600 with microtip (VirTis). After mixing by vortex, 50 μL of each sample was streaked onto blood agar plates, incubated at 37° C. overnight, and the colonies were counted and compared to untreated controls.
For the following data, except where noted in FIG. 2, all antibiotic formulations were in a common polyethylene glycol (PEG) ointment (PEG 400 plus PEG 3350).

S. aureus [2] = assay: In vitro MIC of nisin alone or in combination (log reduction of viable S. aureus); assay type: cell-based; conditions: FIG. 11
Procedure: In order to determine if nisin could function in a synergistic way with other antimicrobials to treat (e.g., kill and/or inhibit growth of) bacteria in vitro, the minimum inhibitory concentration (MIC) of nisin alone or nisin in combination with either mupirocin, neomycin or gentamicin were tested. The MIC was determined by calculating the log reduction of viable S. aureus following incubation with the amounts of nisin and other antimicrobials as indicated in FIG. 11.

P. aeruginosa [3] = conditions: previously shown; cited from earlier work
S. aureus [4] = assay: Suture skin infection model (deep tissue infection) in mouse; assay type: in vivo; conditions: deep cut, FIG. 13
Procedure: It was determined whether nisin and mupirocin, either alone or in combination with each other, would be able to treat S. aureus in a deep tissue infection model. A suture skin infection model was generated in which a deep cut (e.g., one needing sutures to close) was made in a mouse and S. aureus introduced into the incision. […] Thus, a combination of nisin and mupirocin can be used to treat a deep tissue infection as well as a […] infection.

P. aeruginosa [5] = assay: P. aeruginosa infection in abraded mouse skin; assay type: in vivo; conditions: FIG. 4
[6] = test system: Staphylococcus aureus ATCC #6538; assay: Pig partial thickness wounds inoculated with Staphylococcus aureus; assay type: in vivo
[7] = test system: S. aureus strain resistant to mupirocin; assay: Mupirocin-resistant S. aureus infection in abraded mouse skin; assay type: in vivo; conditions: FIG. 3
Procedure: as §1
Topical Ointment: 74 g of PEG 400 and 24 g of PEG 3350 were added to a 250 mL glass beaker and heated until all of the PEG 3350 was melted. […]
Treatment of Infected Skin with Topical Ointment: Treatments aimed to eradicate S. aureus skin infections in the mouse model were started on the morning after infection (Day 1). […] After mixing by vortex, 50 μL of each sample was streaked onto blood agar plates, incubated at 37° C. overnight, and the colonies were counted and compared to untreated controls.

CC[C@H](C)[C@H](N)C1=N[C@H](C(=O)N[C@@H](CC(C)C)C(=O)N[C@H](CCC(=O)O)C(=O)N[C@H](C(=O)N[C@H]2CCCCNC(=O)[C@H](CC(N)=O)NC(=O)[C@@H](CC(=O)O)NC(=O)[C@H](Cc3cnc[nH]3)NC(=O)[C@@H](Cc3ccccc3)NC(=O)[C@H]([C@@H](C)CC)NC(=O)[C@@H](CCCN)NC2=O)[C@@H](C)CC)CS1 [bacitracin] ({Ileψ(thiazoline)Cys}-L[dE]IK[dOrn]I[dF]H[dD]N; lactam 4-C)
synergy with mupirocin in the skin infection model (in words) (S. aureus [1]): did not synergize

gentamicin
synergy with nisin in vitro (in words) (S. aureus [2]): does not synergize
synergy or additive effect with nisin in the skin infection model (in words) (S. aureus [1]): did synergize

neomycin
synergy with nisin in vitro (in words) (S. aureus [2]): does not synergize
synergy or additive effect with nisin in the skin infection model (in words) (S. aureus [1]): did not synergize

gallidermin
synergy with mupirocin in the skin infection model (in words) (S. aureus [1]): did synergize
synergy or additive effect with nisin in the skin infection model (in words) (S. aureus [1]): did not synergize

C/C(=C\C(=O)OCCCCCCCCC(=O)O)C[C@@H]1OC[C@H](C[C@@H]2O[C@H]2[C@@H](C)[C@H](C)O)[C@@H](O)[C@H]1O [mupirocin]
activity against P. aeruginosa (in words) (P. aeruginosa [3]): poor activity
efficacy in treating S. aureus in suture infection model (in words) (S. aureus [4]): very little efficacy
synergy with nisin in vitro (in words) (S. aureus [2]): does not synergize
activity relative to nisin formulation (in words) (P. aeruginosa [5]): does not add any additional activity
Staphylococcus aureus recovered from wounds ([6]; Day 7 post treatment, FIG. 8): 1.63 Log cfu/ml
Staphylococcus aureus recovered from wounds ([6]; two days after initial treatment, treated twice per day, FIG. 6): 4.96±0.8 Log CFU/ml
activity against mupirocin-resistant S. aureus (in words) [7]: minimal activity
decrease of infectious CFUs (S. aureus [1]; abraded mouse skin, PEG ointment 3 times a day on Days 1 and 2, FIG. 1, for combinations: residual infections): 3 logs

Source: US8697639B2, “Compositions and methods for treating bacteria” (Biosynexus Incorporated, priority 2005, dated 2014)
